Reference: BindingDB's records for patent US10913753 (Valo Early Discovery, 2021)

Tests used:
[1] = target: T1, Ubiquitin carboxyl-terminal hydrolase 28 (Homo sapiens, UniProt Q96RU2); test: Biochemical Assay
T1 sequence (Q96RU2 whole entry): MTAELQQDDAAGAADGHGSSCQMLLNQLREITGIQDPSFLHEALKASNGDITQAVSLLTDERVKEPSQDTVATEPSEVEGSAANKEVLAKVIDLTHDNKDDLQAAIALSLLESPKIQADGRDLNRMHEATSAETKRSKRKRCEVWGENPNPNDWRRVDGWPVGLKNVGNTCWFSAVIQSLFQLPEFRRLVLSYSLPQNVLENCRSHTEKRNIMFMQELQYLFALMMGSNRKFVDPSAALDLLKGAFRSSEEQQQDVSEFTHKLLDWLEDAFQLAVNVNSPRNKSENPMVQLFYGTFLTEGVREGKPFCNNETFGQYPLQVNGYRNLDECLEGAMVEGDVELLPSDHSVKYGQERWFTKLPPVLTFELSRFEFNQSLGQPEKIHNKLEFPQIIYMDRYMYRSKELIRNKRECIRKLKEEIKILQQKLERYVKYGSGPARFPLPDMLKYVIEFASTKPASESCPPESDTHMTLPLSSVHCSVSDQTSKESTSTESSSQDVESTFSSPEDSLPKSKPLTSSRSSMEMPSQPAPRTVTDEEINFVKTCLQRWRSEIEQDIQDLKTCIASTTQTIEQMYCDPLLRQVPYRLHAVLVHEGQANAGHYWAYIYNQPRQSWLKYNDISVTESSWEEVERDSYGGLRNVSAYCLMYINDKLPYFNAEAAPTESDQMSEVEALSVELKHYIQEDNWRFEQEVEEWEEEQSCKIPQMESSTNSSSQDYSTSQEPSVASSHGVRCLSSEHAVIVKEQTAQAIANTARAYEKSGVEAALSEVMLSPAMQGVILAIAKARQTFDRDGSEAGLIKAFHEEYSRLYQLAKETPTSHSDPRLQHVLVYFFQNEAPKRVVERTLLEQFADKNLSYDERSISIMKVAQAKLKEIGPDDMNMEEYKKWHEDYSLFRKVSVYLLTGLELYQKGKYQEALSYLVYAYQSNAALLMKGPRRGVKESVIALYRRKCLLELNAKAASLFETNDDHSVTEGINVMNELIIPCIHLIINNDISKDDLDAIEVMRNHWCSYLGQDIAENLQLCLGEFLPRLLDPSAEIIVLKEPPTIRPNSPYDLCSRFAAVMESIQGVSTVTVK
Method: USP28: The assay was performed in a final volume of 20 uL in assay buffer containing 20 mM Tris-HCl (pH 8.0, (1M Tris-HCl, pH 8.0 solution; Corning 46-031-CM)), 2 mM CaCl2 (1M Calcium Chloride solution; Sigma #21114) 2 mM BME (2-Mercaptoethanol; Sigma 63689-25ML -F), 0.01% Prionex (0.22 uM filtered, Sigma #G-0411), and 0.01% Triton X-100. Stock compound solutions were stored at […] as 10 mM in DMSO. Up to 1 month prior to the assay, 2 mM test compounds were pre-dispensed into assay plates (Black, low volume; Corning #3820) and […] Prestamped assay plates were allowed to come to room temperature on the day of the assay. For the screen, 100 nL of 2 mM was pre-dispensed for a final screening concentration of 10 uM (DMSO(fc)=0.5%). […] Plates were incubated stacked for 90 minutes at room temperature before fluorescence was read on the Envision (Excitation at 485 nm and Emission at 535 nm; Perkin Elmer) or on the PheraSTAR (Excitation at 485 nm and Emission at 535 nm; BMG Labtech).

[2] = target: T2, Ubiquitin carboxyl-terminal hydrolase 25 (Homo sapiens, UniProt Q9UHP3); test: Biochemical Assay
T2 sequence (Q9UHP3 whole entry): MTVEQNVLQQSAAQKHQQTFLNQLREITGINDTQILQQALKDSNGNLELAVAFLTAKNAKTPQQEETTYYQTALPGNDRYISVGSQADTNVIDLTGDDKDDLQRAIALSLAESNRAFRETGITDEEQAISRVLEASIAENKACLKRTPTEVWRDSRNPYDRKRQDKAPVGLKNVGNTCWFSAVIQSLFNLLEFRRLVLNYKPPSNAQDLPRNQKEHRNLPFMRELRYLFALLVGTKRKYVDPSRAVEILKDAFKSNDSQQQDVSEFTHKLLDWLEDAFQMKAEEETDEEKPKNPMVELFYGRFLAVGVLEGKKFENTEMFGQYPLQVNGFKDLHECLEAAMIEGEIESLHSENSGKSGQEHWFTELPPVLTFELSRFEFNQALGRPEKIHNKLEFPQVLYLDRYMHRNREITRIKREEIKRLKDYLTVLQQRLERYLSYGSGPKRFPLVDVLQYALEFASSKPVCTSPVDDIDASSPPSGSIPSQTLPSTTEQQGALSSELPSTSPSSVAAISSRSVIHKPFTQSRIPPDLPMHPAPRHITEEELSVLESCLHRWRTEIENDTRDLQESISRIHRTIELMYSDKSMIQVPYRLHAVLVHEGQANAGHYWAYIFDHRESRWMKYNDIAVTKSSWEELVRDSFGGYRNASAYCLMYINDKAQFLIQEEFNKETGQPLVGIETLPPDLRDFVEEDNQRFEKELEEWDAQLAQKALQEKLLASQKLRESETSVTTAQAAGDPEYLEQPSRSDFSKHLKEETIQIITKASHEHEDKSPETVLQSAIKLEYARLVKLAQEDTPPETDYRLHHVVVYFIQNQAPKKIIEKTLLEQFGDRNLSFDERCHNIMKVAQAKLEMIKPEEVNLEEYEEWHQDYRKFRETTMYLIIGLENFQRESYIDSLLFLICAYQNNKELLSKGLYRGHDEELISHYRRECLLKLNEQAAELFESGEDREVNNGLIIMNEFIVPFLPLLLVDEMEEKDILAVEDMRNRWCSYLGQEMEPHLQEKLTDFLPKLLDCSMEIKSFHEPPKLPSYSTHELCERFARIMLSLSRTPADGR
Method: USP25: The assay was performed in a final volume of 9 uL in assay buffer containing 20 mM Tris-HCl (pH 8.0, (1M Tris-HC1, pH 8.0 solution; Corning 46-031-CM)), 3 mM BME (2-Mercaptoethanol; Sigma 63689-25ML-F), 0.03% BGG (0.22 uM filtered, Sigma, G7516-25G), and 0.01% Triton X-100 (Sigma, T9284-10L). Nanoliter quantities of 10-point, 3-fold serial dilution in DMSO was pre-dispensed into 1536 assay plates (Corning, #3724BC) for a final test concentration of 25 uM to 1.3 nM, top to lowest dose, respectively. Enzyme USP25, construct USP25-His6, (Boston Biochem E-546). Concentration and incubation times were optimized for the maximal signal-to-background while maintaining initial velocity conditions at a fixed substrate concentration. The final concentration of the enzyme in the assay was 75 pM. Final substrate (Ub -Rh110; Ubiquitin-Rhodamine 110, R&D Systems #U-555) concentration was 25 nM with [Ub -Rh110] Km. 3 uL of 2x enzyme was added to assay plates (pre-stamped with compound) preincubated with USP25 for 30 minutes and then 3 uL of 2x Ub-Rh110 was added to assay plates. Plates were incubated for 45 minutes at room temperature before addition of 3 uL of stop solution (final concentration of 10 mM citric acid (Sigma, 251275-500G)). Fluorescence was read on the Envision (Excitation at 485 nm and Emission at 535 nm; Perkin Elmer) or on the PheraSTAR (Excitation at 485 nm and Emission at 535 nm; BMG Labtech).

Row | IC50 [1] | IC50 [2] | SMILES
1 | in the range around 1100 nM | in the range around 6000 nM | CN[C@H]1CN(c2nc(F)c(CCNC(=O)c3sc4nc(C)ccc4c3N)cc2F)CC1C (stereo partly specified) [US10913753, Compound I-214]
2 | < 200 nM | in the range around 1100 nM | Nc1c(C(=O)NCCc2ccc([C@H]3CCNC3)cc2)sc2ncccc12 [US10913753, Compound I-180]
3 | < 200 nM | in the range around 1100 nM | Nc1c(C(=O)NCCc2ccc(C3CCNC3)cc2)sc2ncccc12 (stereo unspecified) [US10913753, Compound I-181]
